Experimental data taken from PubChem BioAssay (NCI).
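Cultured in 96-well plates, cells were exposed to test compound for 48 hours across five concentrations. Definition used: TGI = concentration required for complete inhibition of growth.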

Key:
Assay in all cases: NCI tumour cell line growth inhibition, 48 h
786-0 renal = test system: 786-0 renal
A498 renal = test system: A498 renal
A549 NSCLC = test system: A549 NSCLC
ACHN renal = test system: ACHN renal
BT-549 breast = test system: BT-549 breast
CAKI-1 renal = test system: CAKI-1 renal
COLO 205 colon = test system: COLO 205 colon
DU-145 prostate = test system: DU-145 prostate
EKVX NSCLC = test system: EKVX NSCLC
HCC-2998 colon = test system: HCC-2998 colon
HCT-116 colon = test system: HCT-116 colon
HCT-15 colon = test system: HCT-15 colon
HL-60(TB) leukemia = test system: HL-60(TB) leukemia
HOP-62 NSCLC = test system: HOP-62 NSCLC
HOP-92 NSCLC = test system: HOP-92 NSCLC
IGROV1 ovarian = test system: IGROV1 ovarian
K-562 leukemia = test system: K-562 leukemia
KM12 colon = test system: KM12 colon
M14 melanoma = test system: M14 melanoma
MALME-3M melanoma = test system: MALME-3M melanoma
MDA-MB-231 breast = test system: MDA-MB-231 breast
MDA-MB-435 = test system: MDA-MB-435
NCI-H226 lung = test system: NCI-H226 lung
NCI-H23 lung = test system: NCI-H23 lung
NCI-H460 lung = test system: NCI-H460 lung
NCI-H522 lung = test system: NCI-H522 lung
NCI/ADR-RES ovarian = test system: NCI/ADR-RES ovarian
OVCAR-3 ovarian = test system: OVCAR-3 ovarian
OVCAR-4 ovarian = test system: OVCAR-4 ovarian
OVCAR-5 ovarian = test system: OVCAR-5 ovarian
OVCAR-8 ovarian = test system: OVCAR-8 ovarian
PC-3 prostate = test system: PC-3 prostate
RPMI-8226 leukemia = test system: RPMI-8226 leukemia
RXF 393 renal = test system: RXF 393 renal
SF-268 CNS = test system: SF-268 CNS
SF-295 CNS = test system: SF-295 CNS
SF-539 CNS = test system: SF-539 CNS
SK-MEL-2 melanoma = test system: SK-MEL-2 melanoma
SK-MEL-28 melanoma = test system: SK-MEL-28 melanoma
SK-OV-3 ovarian = test system: SK-OV-3 ovarian
SNB-19 CNS = test system: SNB-19 CNS
SNB-75 CNS = test system: SNB-75 CNS
SR leukemia = test system: SR leukemia
SW-620 colon = test system: SW-620 colon
T-47D breast = test system: T-47D breast
TK-10 renal = test system: TK-10 renal
U251 CNS = test system: U251 CNS
UACC-62 melanoma = test system: UACC-62 melanoma
UO-31 renal = test system: UO-31 renal

Measured: TGI

N#Cc1c(-c2ccc(Cl)cc2)cc(-c2ccc(Nc3ccnc4cc(Cl)ccc34)cc2)nc1N
> 100 µM: all assays above
